Consider seven compounds from US7745489B2, “Compositions and methods for inhibition of phospholipase A2 mediated inflammation” (The Regents of the University of California, priority 2002, dated 2010).

“And” between values parts separate entries of the source, which are not always exact repeats. Equal values may be shown once. Read-outs that look alike come from different tables or passages of the source.

A word on the inhibition: it is the change of the read-out against control, counted positive when it falls. In general, IC50 refers to the point on the concentration scale where inhibition reaches its midpoint. Lower therefore signals inhibition by little substance. For orientation: ED50 means the dose at which the effect has come halfway, by size or by number of responders. A high value points to a need for a large dose. Broadly, the melting point is the temperature, or range, at which the solid turns liquid.

In data set [1] the test system is spontaneous movement. The settings on record: rat, in vivo.
The test system of data set [2] is formalin induced flinching. Put plainly: Formalin induced flinching. The settings on record: intrathecal pretreatment 10 min; result in words. Type of data set: in vivo, rat.
The target in data set [3] is T1, cPLA2 (Homo sapiens, UniProt P47712).
T1 sequence (P47712 1-749): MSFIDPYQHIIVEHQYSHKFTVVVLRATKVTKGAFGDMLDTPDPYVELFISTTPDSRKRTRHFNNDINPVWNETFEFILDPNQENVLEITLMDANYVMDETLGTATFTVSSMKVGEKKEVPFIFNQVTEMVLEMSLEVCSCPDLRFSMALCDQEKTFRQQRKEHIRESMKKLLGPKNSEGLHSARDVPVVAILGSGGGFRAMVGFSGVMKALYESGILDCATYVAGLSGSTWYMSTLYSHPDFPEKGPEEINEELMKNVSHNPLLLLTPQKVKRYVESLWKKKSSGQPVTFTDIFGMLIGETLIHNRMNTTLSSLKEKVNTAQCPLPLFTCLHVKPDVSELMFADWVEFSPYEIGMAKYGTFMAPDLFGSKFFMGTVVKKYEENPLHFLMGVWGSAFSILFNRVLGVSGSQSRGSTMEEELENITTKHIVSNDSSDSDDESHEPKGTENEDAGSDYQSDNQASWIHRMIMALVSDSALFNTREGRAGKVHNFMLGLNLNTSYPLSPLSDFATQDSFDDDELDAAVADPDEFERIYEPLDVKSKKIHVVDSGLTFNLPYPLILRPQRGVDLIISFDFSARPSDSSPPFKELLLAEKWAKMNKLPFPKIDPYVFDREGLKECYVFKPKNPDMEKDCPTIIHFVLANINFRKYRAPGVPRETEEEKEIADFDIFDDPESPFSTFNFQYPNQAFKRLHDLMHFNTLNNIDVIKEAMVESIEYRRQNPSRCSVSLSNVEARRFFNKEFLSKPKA
Put plainly: cPLA2 activity on TX-100/PAPC mixed micelles, inhibition by 2-oxoamides. The settings on record: for Inhibition of cPLA2: result in words. Format: biochemical.

Data set [4] deals with P388D1 cells. Put plainly: PGE2 release from stimulated P388D1 macrophages. The settings on record: for inhibition at 50 µM / IC50: Mus musculus; for inhibition at 50 µM: LPS 1 hour then PAF 15 min, maximal dosage tested 50 μM; for IC50: LPS 18 hr, inhibitor added 30 min prior to stimulation; for Block of PGE2 release: long-term LPS stimulation, 50 μM inhibitor, result in words. Format: cell-based, murine. The procedure:
cPLA2 and iPLA2 are expressed in macrophage cells. It was therefore of interest to determine if the PLA2 inhibitors of the invention acted on either or both of cPLA2 and iPLA2 in macrophages. To that end, P388D1 murine macrophages were maintained at 37° C. in a humidified 10% CO2 atmosphere. Cells were grown in Iscove's Modified Dulbecco's Medium (IMDM with 10% fetal calf serum (HyClone Labs, Provo Utah), 100 units/mL penicillin and 100 μg/mL streptomycin (Invitrogen, Carlsbad Calif.). Cells were routinely passaged every 2-3 days when the cells reached 75-80% confluence. Cells used for stimulation were plated at a density of 10^6 cells per well in standard 12 well tissue culture plates and were allowed to adhere overnight.
Macrophages were stimulated by treating P338D1 cells with either lipopolysaccharide (LPS) alone or LPS combined with platelet activating factor (PAF). Briefly, cells were washed twice with starvation media (IMDM containing 0.2% fetal calf serum, 100 units/mL penicillin and 100 μg/mL streptomycin) and then incubated with 1 mL of starvation media for one hour. Cells were then exposed to either 100 ng/mL LPS for 18 hours or 200 ng/mL LPS for one hour. Cells treated with 200 ng/mL LPS were then exposed to 100 nM PAF for 15 minutes. At the end of the stimulation, the media was removed from the cells, cleared of cellular debris by centrifugation and analyzed for prostaglandin E2 (PGE2) levels by enzyme-linked immunoassay (Cayman Chemical, Ann Arbor Mich.).
Inhibitor compounds were dissolved in DMSO and diluted into starvation media prior to addition to cells; the DMSO concentration was kept below 0.5% v/v in all studies. All inhibitors were added 30 minutes prior to stimulation.

For data set [5], the system named is acetic acid writhing. Put plainly: Acetic acid writhing test, analgesic activity. Type of data set: in vivo, rat. The procedure:
The acetic acid writhing test was used to assess the analgesic activity in rats (reference drug sodium acetylsalicylate, at 1 mmol/kg, 93.4%). The inhibitors were given ip and 30 min later 1 mL/100 g body weight of 0.6% acetic acid was given ip.

In data set [6] the test system is carrageenan-induced paw edema. The data set is described as follows: Rat carrageenan-induced paw edema assay, ip, acute inflammation. To be noted: after 3.5 h; for ED50: Rattus norvegicus, carrageenin paw edema test, ip. Format: in vivo. How it is done:
The experiments were conducted on Fisher 344 female rats weighing 200-260 g. Acute anti-inflammatory activity was measured after 3.5 h by reduction of rat paw carrageenan edema, induced by injection of 0.1 mL carrageenan 2% (K100, commercially available) in sterilized saline intradermally into the right footpad. The examined compounds were administered intraperitoneally (ip) simultaneously. Control animals accepted only vehicle.
Background: Carrageenan injected into the paw causes an acute inflammation.

The target of data set [7] is T2, iPLA2 (Homo sapiens, UniProt O60733).
T2 sequence (O60733 1-806): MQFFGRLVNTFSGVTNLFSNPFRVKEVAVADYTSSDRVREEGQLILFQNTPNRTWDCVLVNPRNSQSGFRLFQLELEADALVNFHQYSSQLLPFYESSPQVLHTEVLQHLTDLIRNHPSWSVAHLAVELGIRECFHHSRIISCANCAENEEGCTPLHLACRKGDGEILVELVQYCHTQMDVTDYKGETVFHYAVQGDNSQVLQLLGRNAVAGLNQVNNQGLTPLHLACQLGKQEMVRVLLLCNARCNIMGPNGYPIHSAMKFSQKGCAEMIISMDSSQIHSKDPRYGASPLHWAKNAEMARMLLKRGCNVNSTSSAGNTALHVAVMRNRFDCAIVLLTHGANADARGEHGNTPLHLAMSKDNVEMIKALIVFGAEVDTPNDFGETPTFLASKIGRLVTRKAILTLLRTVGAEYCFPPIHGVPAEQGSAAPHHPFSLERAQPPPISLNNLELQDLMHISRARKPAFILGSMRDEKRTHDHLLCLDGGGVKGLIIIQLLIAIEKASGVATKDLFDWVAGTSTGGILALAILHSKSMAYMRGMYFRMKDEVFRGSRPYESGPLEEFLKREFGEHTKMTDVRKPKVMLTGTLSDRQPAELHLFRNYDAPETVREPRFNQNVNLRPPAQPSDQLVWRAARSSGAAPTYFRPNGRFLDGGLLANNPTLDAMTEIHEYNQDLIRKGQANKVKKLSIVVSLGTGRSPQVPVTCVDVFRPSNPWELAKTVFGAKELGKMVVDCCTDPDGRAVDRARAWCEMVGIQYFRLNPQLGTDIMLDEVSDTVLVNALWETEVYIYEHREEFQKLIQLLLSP
Put plainly: iPLA2 activity mixed micelle assay, inhibition by 2-oxoamides. Format: biochemical. The settings on record: Table 4. From the text:
All of the data above are provided with respect to XI(50), which is the mole fraction of inhibitor in the total substrate interface required to inhibit the enzyme by 50%. Almost all inhibitors of PLA2's partition into the phospholipid surface, because they usually have a hydrophobic nature that helps them bind to the active site of the PLA2. When these inhibitors partition into the surface, an important physical effect called surface dilution comes into play. In this case, the strength of the interaction of PLA2 and an inhibitor depends not on the bulk concentration of the inhibitor (molar units), but on the surface concentration of the inhibitor (mole fraction units).
PLA2 Activity Assays: Following homoginization and centrifugation, the spinal cord supernatants were assayed for cPLA2 or iPLA2 activity using the group specific assays developed in our laboratory (Yang et al., Biochem; 269: 278-288, 1999). Briefly the cPLA2 assay conditions were: 100 μM lipid PAPC/PIP2 (97/3) doping with 1% ^14C labeled PAPC in 400 μM triton X-100 mixed micelles, 100 mM Hepes, pH 7.5, 0.08 mM CaCl2, 0.1 mg/ml BSA and 2 mM DTT. iPLA2 assay conditions were: 100 μM DPPC doping with 1% ^14C labeled DPPC in 400 μM triton X-100 mixed micelles, 100 mM Hepes, pH 7.5, 5 mM EDTA, and 1 mM ATP. The total volume for each assay is 500 μL: 200 μL lipid, 250 μL assay buffer, 50 μL sample. In each case the amount of calcium or EDTA added was adjusted to account for the addition of EDTA in the lysis buffer to give the final concentrations listed above.
Lipid preparation: Lipid was dried under N2 and lyopholized for at least one hour to remove all traces of chloroform. Lipid was then resuspended in […] and triton X-100 and micelles were created by repeated vortexing and heating in hot water until the solution clarified. Samples were incubated with substrate for one hour at 40° C. The assay was then terminated and fatty acid extracted by the modified Dole assay. The amount of radioactive fatty acid released in the assay was determined by scintillation counting. Following analysis the data for the cPLA2 assay was adjusted for contaminating iPLA2 activity as described by Yang, et al. (Yang, et al., Anal. Biochem. 269: 278-288 (1999).

The mark [8] stands for this setting: mixed micelles TX-100 400 μM, PAPC 97 μM, PIP2 3 μM (0.6 mole %).

For `O=C1O/C(=C/Br)CCC1c1cccc2ccccc12` (stereo not shown) [BEL, bromoenol lactone], the “Effect on spontaneous movement / normal motor function” value in data set [1] was “did have such an effect”; in data set [1] (60 min), “suppressed spontaneous movement”. Besides, in data set [2], the “Effect on formalin induced flinching” value is “suppression”.

Regarding `CCCCCCCCCCCCCCC(=O)C(=O)NCCCC(=O)O` [OA1, 4-[(2-oxohexadecanoyl)amino]butanoic acid], the “XI(50) (mole fraction)” value in data set [3] (Table 2, iPLA2) is 0.017 ± 0.009 mole fraction. The “XI(50)” value in data set [3] (setting [8]) is 0.017±0.009 mole fraction. In data set [4], the inhibition at 50 µM was approximately 60%, inhibition was half-maximal at 7.8 µM (IC50) and the “Block of PGE2 release” value is “completely block”. Besides, the Analgesic activity in data set [5] (ip dose of 0.01 mmol/kg) is 92.7%. In data set [6], this compound yielded an ED50 of 10 µmol/kg.

The compound `CCCCCCCCCCC(=O)C(=O)N[C@@H](CCCC)CCC(=O)O` [OA4, (4S)-4-[(2-Oxododecanoyl)amino]octanoic acid] showed a melting point of 50 to 52 °C. In addition, the “XI(50) (mole fraction)” value in data set [3] (Table 2, iPLA2) amounted to 0.009 ± 0.004 mole fraction. Besides, the “XI(50)” value in data set [3] (setting [8]) was 0.009±0.004 mole fraction and 0.009 mole fraction. In addition, the “XI(50)” value in data set [3] (mixed micelles TX-100 3 mM, PAPC 1 mM, no PIP2 present) amounted to 0.0027±0.0012 mole fraction. Besides, the “Inhibition of cPLA2” value in data set [3] is given as “quite potent”. In addition, in data set [4], the inhibition at 50 µM was approximately 60%, the IC50 amounted to 5.8 µM and the “Block of PGE2 release” value is reported as “completely block”. The same compound returned an Analgesic activity in data set [5] (ip dose of 0.1 mmol/kg) of 63%. The ED50 in data set [6] was 100 µmol/kg.

Consider `CCC(=O)C(=O)N[C@H]1CCC(=O)OC1` [OA25], for which the “Highest Conc. (mole fraction) w/ % inhibition” value in data set [3] (Table 4, cPLA2, at 0.091 mole fraction) is listed as “cPLA2: 0.091: 41% iPLA2: N/A”. In addition, the “Inhibition of cPLA2” value in data set [3] was “fairly poor inhibitor”. Also, in data set [7], the “XI(50) (mole fraction)” value is on record as “C PLA2: N.D. I PLA2: 0.0142 ± 0.0004 mole fraction”.

Regarding `CCNC(=O)OC[C@H](CCC(=O)OC)NC(=O)C(=O)CC` [OA26], the “XI(50) (mole fraction)” value in data set [3] (Table 4, cPLA2) turned out to be 0.028 ± 0.017 mole fraction; in data set [7], 0.018 ± 0.002 mole fraction. In addition, the “Inhibition of cPLA2” value in data set [3] is “does”.

On to `COc1ccc2c(c1)c(CC(=O)O)c(C)n2C(=O)c1ccc(Cl)cc1` [indomethacin, reference compound], for which, in data set [6] (reference drug at 0.011 mmol/kg), the “% inhibition of carrageenan paw edema” value is recorded as 47%.

On to `CC(=O)Oc1ccccc1C(=O)[O-].[Na+]` [sodium acetylsalicylate, reference compound], for which, in data set [5] (reference drug at 1 mmol/kg), the Analgesic activity is reported as 93.4%.
